Assay results published in ChEMBL document CHEMBL1201862, “PubChem BioAssay data set” (2004).
Active and inactive are the calls of the source. Cut-off read from the data, not from the text of the source, for most assays here: actives have a measured EC50 and inactives only a lower limit.

Legend:
[1] = target: FAD-linked sulfhydryl oxidase ALR (Homo sapiens, UniProt P55789); assay: ALR-catalysed DTT oxidation blockers – biochemical, H2O2 detection, luminescence, cherry-pick, dose response (AID 493248)
[2] = Luminescence Cell-Based Dose Response HTS to Identify Inhibitors of 5'UTR Stem-Loop Driven Prion Protein mRNA Translation in H4 Neuroglioblastoma Cells. [Related pubchem assays: 1827 (Project Summary), 1813 (Primary HTS)]; assay type: functional
[3] = alpha-synuclein stem-loop luciferase translation blockers – H4 neuroglioma cells, luminescence, confirmation (AID 1988); assay type: functional, cell-based
[4] = luciferase reporter signal suppression in cells – H4 neuroglioma cells, luminescence, dose response (AID 1990); assay type: functional, cell-based
[5] = viability of uninfected HEp-2 cells – cell-based, HTS, cytotoxicity control for RSV inhibitor project, dose response (AID 2410); assay type: functional; details: human respiratory syncytial virus
[6] = target: T1, Corticotropin-releasing factor receptor 2/Corticotropin-releasing factor-binding protein (Homo sapiens, UniProt P24387+Q13324); assay: Dose Response confirmation of uHTS hits for small molecule antagonists of the CRF-binding protein and CRF-R2 receptor complex.; assay type: functional; details: read-out: IC50_Mean
T1 sequence (Q13324 whole entry): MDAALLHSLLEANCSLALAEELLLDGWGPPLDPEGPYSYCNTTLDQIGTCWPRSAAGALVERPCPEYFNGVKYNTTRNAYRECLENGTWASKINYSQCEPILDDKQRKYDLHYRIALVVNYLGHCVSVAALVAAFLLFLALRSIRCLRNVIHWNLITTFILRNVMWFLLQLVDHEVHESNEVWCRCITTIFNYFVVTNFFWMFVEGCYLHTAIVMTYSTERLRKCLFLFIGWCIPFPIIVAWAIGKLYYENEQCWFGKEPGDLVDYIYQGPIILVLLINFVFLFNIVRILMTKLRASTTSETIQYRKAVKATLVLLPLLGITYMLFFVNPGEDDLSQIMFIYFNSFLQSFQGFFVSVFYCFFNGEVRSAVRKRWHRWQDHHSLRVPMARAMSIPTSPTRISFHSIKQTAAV
T1 sequence (P24387 whole entry): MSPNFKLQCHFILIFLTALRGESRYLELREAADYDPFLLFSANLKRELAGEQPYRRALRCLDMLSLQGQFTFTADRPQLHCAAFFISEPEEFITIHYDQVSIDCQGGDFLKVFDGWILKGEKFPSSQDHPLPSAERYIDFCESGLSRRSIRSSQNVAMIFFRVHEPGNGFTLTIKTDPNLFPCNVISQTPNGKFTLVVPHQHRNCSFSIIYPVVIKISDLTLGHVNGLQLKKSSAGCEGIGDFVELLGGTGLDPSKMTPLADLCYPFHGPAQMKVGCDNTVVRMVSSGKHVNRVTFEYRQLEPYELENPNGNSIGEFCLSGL

[7] = target: T1, Corticotropin-releasing factor receptor 2/Corticotropin-releasing factor-binding protein; assay: activators of CRF receptor 2 with binding protein – uHTS hits, confirmation (AID 602473); assay type: functional; details: read-out: EC50_Mean
[8] = target: T2, Heat shock factor protein 1 (Mus musculus, UniProt P38532); assay: decrease of HSF1-responsive luciferase luminescence – cell-based, NIH3T3, dose retest, confirmation (AID 2382); assay type: functional;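 note: NIH3T3 fibroblasts with HSF1-driven luciferase reporter stressed by proteasome inhibitor MG132; luminescence from HSF1-driven luciferase expression after 8 hours of MG132 stress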
T2 sequence (P38532 whole entry): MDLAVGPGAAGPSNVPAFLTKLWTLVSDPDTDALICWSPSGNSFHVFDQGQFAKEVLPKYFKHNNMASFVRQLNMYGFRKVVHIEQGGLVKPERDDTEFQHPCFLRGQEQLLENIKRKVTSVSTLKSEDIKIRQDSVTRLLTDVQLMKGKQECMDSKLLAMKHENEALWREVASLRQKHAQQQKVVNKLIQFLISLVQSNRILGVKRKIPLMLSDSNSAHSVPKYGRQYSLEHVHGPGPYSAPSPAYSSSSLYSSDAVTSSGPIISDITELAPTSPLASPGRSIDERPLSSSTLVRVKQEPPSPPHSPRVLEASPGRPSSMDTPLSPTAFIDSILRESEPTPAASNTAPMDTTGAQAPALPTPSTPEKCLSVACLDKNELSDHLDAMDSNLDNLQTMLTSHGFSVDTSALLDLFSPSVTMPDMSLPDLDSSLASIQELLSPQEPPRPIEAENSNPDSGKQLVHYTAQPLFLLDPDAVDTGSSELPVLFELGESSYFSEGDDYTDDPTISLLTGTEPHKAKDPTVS

[9] = target: T3, Rac GTPase-activating protein 1 (Homo sapiens, UniProt Q9H0H5); assay: blockers of MgcRacGAP-driven Rac1 GTP hydrolysis – biochemical, ADP Hunter fluorescence, primary and confirmatory, confirmation (AID 624330); assay type: functional
T3 sequence (Q9H0H5 whole entry): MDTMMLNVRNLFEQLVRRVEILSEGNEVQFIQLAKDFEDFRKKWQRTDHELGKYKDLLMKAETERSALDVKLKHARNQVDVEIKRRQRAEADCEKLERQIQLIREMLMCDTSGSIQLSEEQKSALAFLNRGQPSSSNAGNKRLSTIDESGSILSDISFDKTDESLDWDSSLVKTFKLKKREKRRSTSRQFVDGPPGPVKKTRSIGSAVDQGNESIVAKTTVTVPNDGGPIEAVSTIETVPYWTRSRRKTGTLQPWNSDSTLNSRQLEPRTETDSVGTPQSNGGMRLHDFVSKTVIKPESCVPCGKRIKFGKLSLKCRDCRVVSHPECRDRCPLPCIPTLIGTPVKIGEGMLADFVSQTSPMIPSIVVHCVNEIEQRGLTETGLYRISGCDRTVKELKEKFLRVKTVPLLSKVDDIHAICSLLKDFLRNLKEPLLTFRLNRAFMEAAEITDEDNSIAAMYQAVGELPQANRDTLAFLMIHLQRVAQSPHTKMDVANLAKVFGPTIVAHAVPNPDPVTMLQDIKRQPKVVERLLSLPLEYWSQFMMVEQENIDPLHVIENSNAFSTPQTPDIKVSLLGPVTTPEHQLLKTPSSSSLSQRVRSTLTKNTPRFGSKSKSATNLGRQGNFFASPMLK

[10] = target: Cytochrome P450 2C9 (Homo sapiens, UniProt P11712)
[11] = Luminescence Cell-Based Dose Retest to Confirm Inhibitors of Cancer Stem Cells. [Related pubchem assays (depositor defined):AID2717, AID2721]; assay type: functional; details: Homo sapiens
[12] = Trypanosoma cruzi growth suppression in host cells – NIH3T3 host cells, beta-gal luminescence, confirmation (AID 2044); assay type: functional, cell-based;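 note: intracellular parasites grown in NIH/3T3 mouse fibroblasts as host cells; luminescent beta-galactosidase reporter signal from transgenic T. cruzi replicating inside host cells; inhibitors lower the luminescence signal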
[13] = NIH3T3 cell viability loss – ATP luminescence, mouse fibroblasts, counter-screen, dose response (AID 2010); assay type: functional, cell-based;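 note: cells exposed to compound for about 90 hours before reading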

Sequence of FAD-linked sulfhydryl oxidase ALR (P55789 whole entry): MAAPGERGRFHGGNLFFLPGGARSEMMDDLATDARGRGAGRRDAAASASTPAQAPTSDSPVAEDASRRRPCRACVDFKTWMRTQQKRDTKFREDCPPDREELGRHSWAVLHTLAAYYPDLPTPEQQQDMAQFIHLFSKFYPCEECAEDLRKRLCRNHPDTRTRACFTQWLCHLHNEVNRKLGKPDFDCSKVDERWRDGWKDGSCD
Sequence of Cytochrome P450 2C9 (P11712 whole entry): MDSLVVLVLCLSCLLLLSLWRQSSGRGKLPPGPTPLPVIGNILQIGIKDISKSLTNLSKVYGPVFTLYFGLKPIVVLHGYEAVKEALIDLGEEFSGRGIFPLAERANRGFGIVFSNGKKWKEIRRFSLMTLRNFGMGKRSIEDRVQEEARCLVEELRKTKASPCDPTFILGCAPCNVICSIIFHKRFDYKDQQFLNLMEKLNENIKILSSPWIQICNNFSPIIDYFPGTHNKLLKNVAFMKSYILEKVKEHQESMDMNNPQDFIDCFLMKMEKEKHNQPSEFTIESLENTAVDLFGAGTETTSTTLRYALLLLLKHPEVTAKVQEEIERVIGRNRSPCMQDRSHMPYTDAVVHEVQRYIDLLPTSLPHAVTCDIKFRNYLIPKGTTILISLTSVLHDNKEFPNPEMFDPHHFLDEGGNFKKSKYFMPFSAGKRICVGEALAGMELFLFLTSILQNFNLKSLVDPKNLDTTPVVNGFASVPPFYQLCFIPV

COc1ccc(C2SCC(=O)N2c2ccc(F)cc2)cc1 (stereo not drawn)
AC50 [1]: 0.049 µM (active)

Cc1oc2c(C)c3oc(=O)c(CCC(=O)N4C[C@H]5C[C@@H](C4)c4cccc(=O)n4C5)c(C)c3cc2c1C
EC50 [2]: > 120 µM (not active) | EC50 [3]: 13.5 µM (active) | EC50 [4]: 65.1 µM (active)

Cc1ccc(-n2nc3c(=O)n(CCCC(=O)NCc4cccc(Cl)c4)nc(C)c3c2C)cc1
EC50 [2]: 74.3 µM (active) | EC50 [3]: 61.6 µM (active) | EC50 [4]: 14.1 µM (active) | CC50 [5]: 28.4 µM (active)

[O-][n+]1onc2c3c4c(n(O)c3ccc21)CCCC4
AC50 [1]: 0.497 µM (active)

O=C(C1CCCN(S(=O)(=O)c2c[nH]cn2)C1)N1CCN(c2ccc(Cl)cc2)CC1 (stereo not drawn)
AC50 [1]: > 100 µM (inactive)

COc1ccc(N(CC(=O)NCCc2ccc(OC)c(OC)c2)S(=O)(=O)c2c(C)noc2C)cc1
IC50 [6]: > 47.1 µM (inactive) | EC50 [7]: > 53 µM (inactive)

NNC(=O)c1ccc(O)cc1
AC50 [1]: 4.28 µM (active)

CN(C)c1cccc(C(=O)NC2CCCCCC2)c1
AC50 [1]: 8.08 µM (active)

COc1ccc(CCNC(=O)c2cccc([N+](=O)[O-])c2)cc1OC
EC50 [8]: 2.26 µM (active)

O=C(Cc1coc2cc(O)ccc12)N1CCN(S(=O)(=O)c2ccc(Br)cc2)CC1
IC50 [9]: 21.6 µM (active)

O=C(CN1CCN(c2ccc(O)cc2)CC1)Nc1ccc(S(=O)(=O)N2CCCC2)cc1
AC50 [1]: 0.699 µM (active)

COCCCNc1nc(S)nc2cc(OC)c(OC)cc12
IC50 [9]: 69.7 µM (active)

O=C1NC(=O)C(CCc2ccncc2)(Cc2cccc(Cl)c2Cl)C(=O)N1c1ccc(Br)cc1 (stereo not drawn)
EC50 [2]: 18.9 µM (active) | EC50 [3]: 13.9 µM (active) | EC50 [4]: 13.2 µM (active)

O=S(=O)(Nc1ccncc1)c1ccc(Cl)cc1
EC50 [8]: > 195 µM (not active)

COc1ccc(CNC(=O)Nc2cccs2)cc1OC
AC50 [10]: 39.8 µM (inconclusive) | IC50 [6]: > 47.1 µM (inactive) | EC50 [7]: > 53 µM (inactive)

Nc1[nH]cnc2nc(SCCOc3ccc(Cl)cc3)nc1-2
EC50 [8]: > 195 µM (not active)

CN(C)c1ccc(CNC(=O)C2CCN(S(=O)(=O)c3ccc4c(c3)CCCC(=O)N4)CC2)cc1
AC50 [1]: 5.99 µM (active)

COc1ccc(/C=C2\C(=O)ON=C2c2ccccc2)cc1
AC50 [1]: 66.4 µM (active)

Cc1sc2ncnc(N3CCC(C(=O)N(C)CC(=O)Nc4ccc(Cl)c(C(F)(F)F)c4)CC3)c2c1C
EC50 [2]: 13 µM (active) | AC50 [11]: 3.41 µM (active) | EC50 [3]: 10.3 µM (active) | EC50 [4]: 7.86 µM (active) | EC50 [12]: 2.73 µM (active) | EC50 [13]: > 60 µM (not active)

C=CCn1c(CNc2ccc(C)cc2)nnc1SCC(=O)N/N=C/c1ccc(O)cc1O
AC50 [11]: 4.31 µM (active) | IC50 [9]: 85.1 µM (active)

Cc1ccc(OCCC(=O)O)cc1
IC50 [6]: > 47.1 µM (inactive) | EC50 [7]: > 53 µM (inactive)
